Measured values reported in patent publication US20090247520A1, “INHIBITORS OF ANTIGEN RECEPTOR-INDUCED NF-kappa B ACTIVATION” (The Burnham Institute for Medical Research, priority 2008, published 2009).

Columns and labels:
[1] = system: PMA/Ionomycin-induced NF-κB reporter gene activity; assay: NF-κB luciferase reporter gene assay, PMA/Ionomycin-stimulated HEK293-NF-κB-luc cells; type: cell-based; details: for inhibition of PMA/Ionomycin-induced NF-κB luciferase activity: HEK293; for IC50: Table II, read-out: IC50, Inhibition of antigen receptor-mediated Nf-κB
Source text: The strategy for compound library screening entailed using phorbol ester (phorbol myristic acetate [PMA]) and Ca^2+-ionophore Ionomycin to achieve PKC activation, mimicking the initiating events in the antigen receptor pathway. For convenience, we used HEK293 epithelial cells, in which it has previously been shown by siRNA-mediated gene silencing and transfection of dominant-negative mutants that PMA/Ionomycin-induced NF-κB activation is dependent on CARMA1, Bcl-10, and MALT. HEK293 cells were stably transfected with a luciferase reporter gene driven by a NF-κB responsive promoter, and the responsiveness of this integrated promoter to various NF-κB inducing stimuli was confirmed, including PMA/Ionomycin and TNF. Using these cells, 96- and 384-well plate-based high throughput screening (HTS) assays were established, with good assay performance characteristics (Z′>0.5) (PubChem AID=1384). We initially screened 53,280 chemical compounds at an average concentration of 5 μM, of which 519 primary hits were obtained (based on cut-off of 50% inhibition). Of these, 248 confirmed upon repeat testing (FIG. 1).
Cell engineering. HEK293 cells were co-transfected with pUC13-4xNFκB-Luc and p-TK-puromycin-resistance plasmids. Stable clones were selected by culture in Dulbecco's Modified Eagle's Media (InVitrogen) supplemented with 10% heat-inactivated fetal bovine serum (FBS) (Hyclone), 1% v/v penicillin-streptomycin (InVitrogen) containing 1 μg/mL puromycin. Individual clones were tested for responsiveness to PMA/Ionomycin- and to TNF-induced NF-κB reporter gene activity, and a clone was selected for HTS.
HTS. NF-κB-luciferase expressing HEK293 cells were seeded at […] per well in white 96 well plates (Greiner Bio-One) in 90 μl of DMEM and incubated overnight. 10 μl of compound-containing solution was added to each well (final 1.5 μg/mL in 1% DMSO) using a liquid handler (Biomek™ FX; Beckman Coulter). After 2 h incubation, cells were stimulated using 11 μl of a PMA (final 100 ng/mL; Calbiochem) and ionomycin (final 50 ng/mL; Calbiochem) in DMEM. Cell plates were incubated for 16 h before media was removed and 40 μl of 0.5× passive lysis buffer (Promega Corp.) was added to cell plates. Plates were allowed to stand at room temperature for at least 15 minutes before adding 40 μl of 0.125× luciferin substrate (Promega Corp.) to each well. Plates were analyzed within 30 seconds with a Criterion Analyst™ using the luminescence method (0.1 second read/well).
Several compounds synthesized by the methods described herein were tested for their efficacy at inhibiting Nf-κB activation.

[2] = system: TNF-induced NF-κB reporter gene activity; assay: TNF-induced NF-κB reporter counter-screen in HEK293-NFκB-Luc cells; type: cell-based; details: TNF 10 ng/mL; CID-2858522 at concentrations as high as 4 μM
Protocol: (§1) (A) Structures of two hit compounds, CID-2858522 (left) and CID-2998237 (right) are shown; (B, C) 293-NF-κB-luc cells were pretreated for 2 hrs with various concentration of either CID-2858522 (B) or CID-29982387 (C) and then stimulated with TNF (10 ng/mL) or PMA/lonomycin (10 ng/mL; 5 ng/mL) for 16 h. Luciferase activity was measured and data were expressed as a percentage relative to control treatment with DMSO only (mean±SD; n=3). (D) 293-NF-κB-luc cells were pretreated for 2 h with various concentrations of CID-2858522 or CID-2998237, then stimulated with PMA/lonomycin for 16 h. IL-8 release into the medium was measured, expressing data as a percentage relative to control cultures treated with DMSO (mean±SD; n=3). (E) 293-NF-κB-luc cells were pretreated with CID-2858522 and then stimulated with PDBu for 16 h, IL-8 production and NF-κB luciferase activity were measured as above. (F) 293-NF-κB-luc cells were pretreated for 2 h with various concentrations of CID-2858522 or a PKC inhibitor (Bisindolylmaleimide I) at 1 μM followed by PMA/Ionomycin (10 ng/mL) stimulation for 2 h, then p65-DNA-binding activity was measured in nuclear extracts (10 μg protein), expressing data as fold-increase relative to unstimulated cells (mean±SD; n=3).
Counter Screening and Secondary Assays. […] Luciferase activity was measured using Britelite kit (Perkin Elmer). […]

[3] = system: PMA/Ionomycin-stimulated IL-8 production; assay: PMA/Ionomycin-stimulated IL-8 production by HEK293 reporter cells (ELISA); type: cell-based, human; details: CID-2998237 at concentrations as high as 4 μM
Protocol: as §1
Lymphokine measurements. Human IL-2 or IL-8 levels in culture medium were measured by Enzyme-Linked Immunosorbent Assays (ELISAs), using BD OptEIA ELISAs (BD Biosciences, San Diego, Calif.), according to the manufacturer's protocol, using 96-well ELISA plates (BD Biosciences) and measuring absorbance within 30 minutes of initiating reactions using a SpectraMax 190 spectrophotometer (Molecular Devices).

IC50 [1] | Compound | inhibition of PMA/Ionomycin-induced NF-κB luciferase activity [1] | further results
 | COC(=O)C1=C(CN2CCCc3ccccc32)NC(=O)NC1c1ccc(F)cc1 (centres unmarked) [CID-2998237] | less potent | inhibition of TNF-induced NF-κB reporter gene activity [2]: some modest inhibition; effect on PMA/Ionomycin-induced IL-8 production [3]: minimal effect
70 nM | COc1c(C(C)(C)C)cc(C(=O)Cn2c(NCCCO)nc3cc(C)c(C)cc32)cc1C(C)(C)C [Compound 32, 1-(3,5-di-tert-butyl-4-methoxyphenyl)-2-(2-(3-hydroxypropylamino)-5,6-dimethyl-1H-benzo[d]imidazol-1-yl)ethanone] |  | 
250 nM | COCCCNc1nc2cc(C)c(C)cc2n1CC(=O)c1cc(C(C)(C)C)c(O)c(C(C)(C)C)c1 [Compound 33, 2-(2-(3-methoxypropylamino)-5,6-dimethyl-1H-benzo[d]imidazol-1-yl)-1-(3,5-di-tert-butyl-4-hydroxyphenyl)ethanone] |  | 
250 nM | COCCCNc1nc2cc(C)c(C)cc2n1CC(=O)c1cc(C(C)(C)C)c(OC)c(C(C)(C)C)c1 [Compound 34, 2-(2-(3-methoxypropylamino)-5,6-dimethyl-1H-benzo[d]imidazol-1-yl)-1-(3,5-di-tert-butyl-4-methoxyphenyl)ethanone] |  | 
100 nM | CCCCNc1nc2cc(C)c(C)cc2n1CC(=O)c1cc(C(C)(C)C)c(O)c(C(C)(C)C)c1 [Compound 40, 1-(3,5-di-tert-butyl-4-hydroxyphenyl)-2-(2-(butylamino)-5,6-dimethyl-1H-benzo[d]imidazol-1-yl)ethanone] |  | 
 | z-ITED-fmk [reference compound] | significantly inhibit | 
